Key:
primary rat adipocytes = assay: Lipogenesis in rat adipocytes; format: cell-based
Method: Lipogenesis in Rat Adipocytes
As a measure of in vitro potency of the insulins of the invention, lipogenesis can be used. Primary rat adipocytes are isolated from the epididymale fat pads and incubated with 3H-glucose in buffer containing e.g. 1% fat free HSA and either standard (human insulin, HI) or insulin of the invention. The labelled glucose is converted into extractable lipids in a concentration dependent way, resulting in full concentration response curves. The result is expressed as relative potency (%) with 95% confidence limits of insulin of the invention compared to standard (HI).

[1] = target: T1, human insulin receptor (IR), solubilised human IR-A (Homo sapiens, UniProt P06213); assay: Insulin receptor affinity on solubilised receptors, competition binding SPA, 0% HSA; details: Table 3, example numbers, binding affinity relative to human insulin
T1 construct: baby hamster kidney (BHK) cells overexpressing the IR-A holoreceptor; made in house; host or cells: baby hamster kidney (BHK) cells overexpressing IR-A; detergent-solubilised, WGA semipurified

[2] = target: T1, human insulin receptor (IR), solubilised human IR-A; assay: Insulin receptor affinity SPA, related assay with 1.5% HSA in binding buffer; details: Table 3, example numbers, binding affinity relative to human insulin
PCSK9 = target: T2, PCSK9 (Homo sapiens, UniProt Q8NBP7); assay: PCSK9-LDL-R binding competitive ELISA; details: apparent binding affinity
T2 construct: purchased BioSite/BPSBioscience (PCSK9); R & D systems (rhLDL-R) 71304 (PCSK9); 2148-LD (rhLDL-R); host or cells: rhLDL-R: NSO-derived

HepG2 cells = assay: LDL uptake assay in HepG2 cells in the presence of PCSK9; format: cell-based, human; details: PCSK9 10 ug/mL
[3] = in vivo
[4] = Table 3, example numbers, potency relative to human insulin
[5] = Table 4, labels are comparator compound numbers, relative to human insulin
[6] = Table 5, example numbers, Ki converted from IC50
[7] = Table 6, labels are comparator compound numbers

Row | Substance | Lipogenesis 1% HSA (% rel to HI) (primary rat adipocytes; [4]) | Lipogenesis 1% HSA (% rel to HI) (primary rat adipocytes; [5]) | further results
1 | EGF(A)(301L, 309R, 312E, 321E)-[GAQP]4-Insulin(B29K(octadecanedioyl-gGlu-2×OEG), desB30) [Example 12] | 0.14 % rel to HI | – | –
2 | EGF(A)(301L, 309R, 312E, 321E)-[GAQP]2-Insulin(B29K(octadecanedioyl-gGlu-2×OEG), desB30) [Example 4] | 0.13 % rel to HI | 0.07 % rel to HI | –
3 | EGF(A)(301L, 309R, 312E, 321E)-[GAQP]2-Insulin(B3E, B29K(octadecanedioyl-gGlu-2×OEG), desB30) [Example 3] | 0.16 % rel to HI | 0.06 % rel to HI | –
4 | EGF(A)(301L, 309R, 312E, 321E)-[GAQP]6-Insulin(B29K(octadecanedioyl-gGlu-2×OEG), desB30) [Example 14] | 0.10 % rel to HI | – | –
5 | EGF(A)(301L, 309R, 312E, 321E)-[GAQP]6-Insulin(A14E, B29K(octadecanedioyl-gGlu-OEG), desB30) [Example 15] | 0.08 % rel to HI | – | hIR-A 0% HSA (% rel to HI) [1]: 5.70 % rel to HI; hIR-A 1.5% HSA (% rel to HI) [2]: 0.23 % rel to HI; Ki (PCSK9; [6]): 2.07 nM
6 | EGF(A)(301L, 309R, 312E, 321E)-[GAQP]13-Insulin(B29K(octadecanedioyl-gGlu-2×OEG), desB30) [Example 9] | 0.12 % rel to HI | – | –
7 | EGF(A)(301L, 309R, 312E, 321E)-[GAQP]19-Insulin(A14E, B29K(eicosanedioyl-gGlu-2×OEG), desB30) [Example 23] | 0.02 % rel to HI | – | hIR-A 0% HSA (% rel to HI) [1]: 2.89 % rel to HI; hIR-A 1.5% HSA (% rel to HI) [2]: 0.14 % rel to HI; EC50 (HepG2 cells; Table 5, example numbers): 126 nM
8 | EGF(A)(301L, 309R, 312E, 321E)-[GQAP]2-Insulin(B29K(octadecanedioyl-gGlu-2×OEG), desB30) [Example 8] | 0.14 % rel to HI | 0.30 % rel to HI | –
9 | EGF(A)(301L, 309R, 312E, 321E)-[GAQP]2-Insulin(B3E, B29K(eicosanedioyl-gGlu-2×OEG), desB30) [Example 6] | 0.06 % rel to HI | 0.06 % rel to HI | Ki (PCSK9; [6]): 2.49 nM
10 | EGF(A)(301L, 309R, 312E, 321E)-[GAQP]2-Insulin(B29K(eicosanedioyl-gGlu-2×OEG), desB30) [Example 7] | – | 0.18 % rel to HI | Ki (PCSK9; [7]): 1.74 nM
11 | EGF(A)(301L, 309R, 312E, 321E)-[GAQP]2-Insulin(B3E, B29K(octadecanedioyl-gGlu-OEG), desB30) [Example 5] | – | 0.44 % rel to HI | –
12 | EGF(A)(301L, 309R, 312E, 321E)-[GAQP]119-Insulin(B3E, B29K(eicosanedioyl-gGlu-2×OEG), desB30) [Example 24] | 0.06 % rel to HI | – | –
13 | EGF(A)(301L, 309R, 312E, 321E)-[GAQP]2-Insulin(B3E, B29K(hexadecanedioyl-gGlu-2×OEG), desB30) [Example 1] | 0.49 % rel to HI | 0.14 % rel to HI | –
14 | EGF(A)(301L, 309R, 312E, 321E)-[GAQP]19-Insulin(B29K(octadecanedioyl-gGlu-2×OEG), desB30) [Example 19] | 0.09 % rel to HI | – | –
15 | EGF(A)(301L, 309R, 312E, 321E)-[GAQP]119-Insulin(B3E, B29K(octadecanedioyl-gGlu-2×OEG), desB30) [Example 21] | 0.07 % rel to HI | – | –
16 | EGF(A)(301L, 309R, 312E, 321E)-[GAQP]6-Insulin(A14E, B29K(eicosanedioyl-gGlu-2×OEG), desB30 [Example 16] | 0.08 % rel to HI | – | hIR-A 0% HSA (% rel to HI) [1]: 4.77 % rel to HI; hIR-A 1.5% HSA (% rel to HI) [2]: 0.26 % rel to HI; Ki (PCSK9; [6]): 1.75 nM
17 | EGF(A)(301L, 309R, 312E, 321E)-[GAQP]10-Insulin(B29K(octadecanedioyl-gGlu-2×OEG), desB30) [Example 2] | – | 0.06 % rel to HI | –
18 | EGF(A)(301L, 309R, 312E, 321E)-[GAQP]6-Insulin(A14E, B29K(octadecanedioyl-gGlu-2×OEG), desB30) [Example 13] | 0.11 % rel to HI | – | hIR-A 0% HSA (% rel to HI) [1]: 5.53 % rel to HI; hIR-A 1.5% HSA (% rel to HI) [2]: 0.35 % rel to HI; Ki (PCSK9; [6]): 1.92 nM; EC50 (HepG2 cells; Table 5, example numbers): 170 nM; Rat iv Mean Residence Time MRT [3]: 13.56 h
19 | EGF(A)(301L, 309R, 312E, 321E)-[GAQP]12-Insulin(B29K(octadecanedioyl-gGlu-2×OEG), desB30) [Example 18] | 0.09 % rel to HI | – | –
20 | EGF(A)(301L, 309R, 312E, 321E)-[GAQP]3-Insulin(A14E, B29K(octadecanedioyl-gGlu-2×OEG), desB30) [Example 10] | 0.12 % rel to HI | – | EC50 (HepG2 cells; [7]): 152 nM
21 | EGF(A)(301L, 309R, 312E, 321E)-[GAQP]119-Insulin(A14E, B29K(octadecanedioyl-gGlu-2×OEG), desB30) [Example 20] | 0.03 % rel to HI | – | EC50 (HepG2 cells; Table 5, example numbers): 123 nM
22 | EGF(A)(301L, 309R, 312E, 321E)-[GAQP]19-Insulin(B29K(eicosanedioyl-gGlu-2×OEG), desB30) [Example 22] | 0.06 % rel to HI | – | –
23 | EGF(A)(301L, 309R, 312E, 321E)-[GAQP]4-Insulin(A14E, B29K(octadecanedioyl-gGlu-2×OEG), desB30) [Example 11] | 0.12 % rel to HI | – | –

From patent publication US11649269B2, “Bifunctional compounds comprising insulin peptides and EGF(A) peptides” (Novo Nordisk A/S, priority 2018, dated 2023)
